Measured values: PMC3034978 (Biopharmaceutics & drug disposition, 2010)
Like-named read-outs stand apart in the source and are kept apart here. Marks after values point to notes of the source that are not given here. Values belong to the molecule of their own block, whether it stands above or below them.

What was measured:
BME-UV monolayer = assay: Mannitol flux across BME-UV monolayer from Ap-to-BL side; format: in vitro ADME, bovine; conditions: for Effect on flux of mannitol across BME-UV monolayer (monolayer integrity): 200 ng/ml TNF-α
P-glycoprotein [1] = assay: Western blot of P-glycoprotein immunoreactive bands in BME-UV cells; format: cell-based, bovine; conditions: TNF-α 200 ng/ml
[2] = test system: mammary epithelial monolayer (BME-UV); conditions: exposure to TNF-α for 8 hours; cited from earlier work
bABCB1 mRNA = bABCB1 mRNA expression by quantitative real-time RT-PCR in BME-UV cells; format: cell-based, bovine; conditions: 200 ng/ml TNF-α, 24 hours exposure, vs unexposed cells
P-glycoprotein [3] = target: P-glycoprotein (Bos taurus, UniProt A0A3Q1MB23); assay: Ap-to-BL flux of digoxin; format: in vitro ADME, bovine; conditions: TNF-α 200 ng/ml, 24 hours exposure; 0.05 μM [3H]-digoxin
P-glycoprotein (Bos taurus, UniProt A0A3Q1MB23), sequence (A0A3Q1MB23 1-1267): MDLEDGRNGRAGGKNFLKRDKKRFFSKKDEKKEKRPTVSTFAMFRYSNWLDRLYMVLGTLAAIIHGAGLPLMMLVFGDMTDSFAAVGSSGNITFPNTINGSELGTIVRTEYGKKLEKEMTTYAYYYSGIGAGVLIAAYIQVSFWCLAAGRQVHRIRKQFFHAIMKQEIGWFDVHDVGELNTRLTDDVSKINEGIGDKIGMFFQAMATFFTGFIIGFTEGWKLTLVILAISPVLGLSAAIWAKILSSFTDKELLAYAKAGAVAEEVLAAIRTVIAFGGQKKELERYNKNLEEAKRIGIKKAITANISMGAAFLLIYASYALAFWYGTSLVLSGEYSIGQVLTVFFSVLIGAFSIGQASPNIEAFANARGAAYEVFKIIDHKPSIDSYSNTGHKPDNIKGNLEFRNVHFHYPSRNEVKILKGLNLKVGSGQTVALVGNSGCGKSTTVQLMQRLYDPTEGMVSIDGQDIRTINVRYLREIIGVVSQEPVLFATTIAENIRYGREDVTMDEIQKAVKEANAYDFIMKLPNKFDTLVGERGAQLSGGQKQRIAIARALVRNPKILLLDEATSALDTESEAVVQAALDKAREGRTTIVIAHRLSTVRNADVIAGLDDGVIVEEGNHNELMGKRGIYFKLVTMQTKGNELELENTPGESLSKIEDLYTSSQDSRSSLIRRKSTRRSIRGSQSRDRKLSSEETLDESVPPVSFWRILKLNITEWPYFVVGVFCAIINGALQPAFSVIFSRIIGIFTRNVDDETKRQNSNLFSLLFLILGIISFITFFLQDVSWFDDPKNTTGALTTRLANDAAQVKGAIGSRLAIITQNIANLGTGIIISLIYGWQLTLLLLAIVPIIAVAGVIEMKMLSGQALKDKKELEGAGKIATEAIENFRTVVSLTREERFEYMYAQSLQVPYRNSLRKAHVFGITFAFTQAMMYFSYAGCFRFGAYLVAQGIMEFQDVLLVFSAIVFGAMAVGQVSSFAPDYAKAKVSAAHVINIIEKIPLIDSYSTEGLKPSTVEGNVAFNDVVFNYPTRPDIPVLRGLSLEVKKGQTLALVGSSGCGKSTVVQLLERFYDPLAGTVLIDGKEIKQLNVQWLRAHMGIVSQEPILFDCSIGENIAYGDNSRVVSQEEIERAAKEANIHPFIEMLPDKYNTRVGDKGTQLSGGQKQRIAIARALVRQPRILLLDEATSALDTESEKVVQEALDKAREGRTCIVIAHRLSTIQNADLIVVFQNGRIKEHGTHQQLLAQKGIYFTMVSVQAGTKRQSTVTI

Intracellular content of digoxin (BME-UV cells; BME-UV cells exposed to TNF-α for 24 hours): 4.6 ± 1.1 × 10^−4 nmol | Intracellular content of digoxin (BME-UV cells; BME-UV cells exposed to TNF-α for 72 hrs): 3.0 ± 0.2 × 10^−4 nmol | Intracellular content of digoxin (BME-UV cells; unexposed BME-UV cells): 6.3 ± 2.6 × 10^−4 nmol
Molecule: C[C@H]1O[C@@H](O[C@H]2[C@@H](O)C[C@H](O[C@H]3[C@@H](O)C[C@H](O[C@H]4CC[C@@]5(C)[C@H](CC[C@@H]6[C@@H]5C[C@@H](O)[C@]5(C)[C@@H](C7=CC(=O)OC7)CC[C@]65O)C4)O[C@@H]3C)O[C@@H]2C)C[C@H](O)[C@@H]1O [digoxin]

Mannitol flux, Ap-to-BL (BME-UV monolayer; BME-UV exposed to TNF-α 200 ng/ml for 24 hr (TNF-24H)): 15.5 × 10^−3 ^b nmol/cm^2/hr | Mannitol flux, Ap-to-BL (BME-UV monolayer; BME-UV exposed to TNF-α 200 ng/ml for 72 hr (TNF-72H)): 14.1 × 10^−3 ^b nmol/cm^2/hr | Mannitol flux, Ap-to-BL (BME-UV monolayer; BME-UV exposed to TNF-α 200 ng/ml for 120 hr (TNF-120H)): 9.6 × 10^−3 ^a nmol/cm^2/hr | Flux value of mannitol (BME-UV monolayer; TNF-α exposed monolayers for 24 hours): 15.5 ± 0.8 × 10^−6 μmol/cm^2 per hour | Mannitol flux, Ap-to-BL (BME-UV monolayer; Untreated BME-UV monolayer, 2 μM [14C]-mannitol): 6.5 × 10^−3 ^a nmol/cm^2/hr | Flux value of mannitol (BME-UV monolayer; unexposed monolayers): 6.5 ± 0.7 × 10^−6 μmol/cm^2 per hour
Molecule: OC[C@@H](O)[C@@H](O)[C@H](O)[C@H](O)CO [mannitol]

Change in Ap-to-BL flux of digoxin (P-glycoprotein [3]): significantly decreased
Molecule: TNF-α
Change in P-glycoprotein immunoreactive level (P-glycoprotein [1]; 24 hours exposure): significant increase | Change in P-glycoprotein immunoreactive level (P-glycoprotein [1]; 72 hours exposure): maximum observed effect | Change in P-glycoprotein immunoreactive level (P-glycoprotein [1]; 120 hours exposure, lower than at 72 hours): increased significantly | Decrease in Rte value [2]: 30% | Effect on flux of mannitol across BME-UV monolayer (monolayer integrity) (BME-UV monolayer; 24 and 72 hours exposure): increased significantly | Effect on flux of mannitol across BME-UV monolayer (monolayer integrity) (BME-UV monolayer; 120 hours exposure): indistinguishable from untreated | Change in bABCB1 mRNA expression (bABCB1 mRNA): significant increase
